# Test results: a compilation of properties of binary mixtures (doi:10.1007/s10953-018-0729-9)
# Assay: xn = mol fraction of the nth substance listed
# Conditions: 101.3 kPa
structure (smiles),measurement,setting,value
O=C1CCCN1 + CCCC[n+]1ccn(C)c1.F[P-](F)(F)(F)(F)F,speed of sound,"303.15 K, x2 = 0",1618 m/s
same,speed of sound,"303.15 K, x2 = 0.0494",1584.7 m/s
same,speed of sound,"303.15 K, x2 = 0.1025",1575.2 m/s
same,speed of sound,"303.15 K, x2 = 0.1503",1566.5 m/s
same,speed of sound,"303.15 K, x2 = 0.2215",1553.8 m/s
same,speed of sound,"303.15 K, x2 = 0.3376",1532.9 m/s
same,speed of sound,"303.15 K, x2 = 0.4502",1512.7 m/s
same,speed of sound,"303.15 K, x2 = 0.5654",1492 m/s
same,speed of sound,"303.15 K, x2 = 0.6527",1476.3 m/s
same,speed of sound,"303.15 K, x2 = 0.8295",1446.5 m/s
same,speed of sound,"303.15 K, x2 = 0.8622",1442.6 m/s
same,speed of sound,"303.15 K, x2 = 0.9019",1438.5 m/s
same,speed of sound,"308.15 K, x2 = 0.1025",1560 m/s
same,speed of sound,"308.15 K, x2 = 0.1503",1551.8 m/s
same,speed of sound,"308.15 K, x2 = 0.3376",1519.5 m/s
same,speed of sound,"308.15 K, x2 = 0.4502",1499.9 m/s
same,speed of sound,"308.15 K, x2 = 0.5654",1479.6 m/s
same,speed of sound,"308.15 K, x2 = 0.6527",1464.2 m/s
same,speed of sound,"308.15 K, x2 = 0.7421",1448.2 m/s
same,speed of sound,"308.15 K, x2 = 0.8295",1434.6 m/s
same,speed of sound,"308.15 K, x2 = 0.8622",1430.7 m/s
same,speed of sound,"308.15 K, x2 = 0.9019",1426.6 m/s
same,speed of sound,"308.15 K, x2 = 0.9495",1423 m/s
same,speed of sound,"313.15 K, x2 = 0",1585.4 m/s
same,speed of sound,"313.15 K, x2 = 0.0494",1553.7 m/s
same,speed of sound,"313.15 K, x2 = 0.1025",1545.1 m/s
same,speed of sound,"313.15 K, x2 = 0.1503",1537.3 m/s
same,speed of sound,"313.15 K, x2 = 0.2215",1525.6 m/s
same,speed of sound,"313.15 K, x2 = 0.3376",1506.3 m/s
same,speed of sound,"313.15 K, x2 = 0.6527",1452.3 m/s
same,speed of sound,"313.15 K, x2 = 0.7421",1436.5 m/s
same,speed of sound,"313.15 K, x2 = 0.8295",1422.9 m/s
same,speed of sound,"313.15 K, x2 = 0.9019",1414.8 m/s
same,speed of sound,"313.15 K, x2 = 0.9495",1411.2 m/s
same,speed of sound,"318.15 K, x2 = 0",1569.4 m/s
same,speed of sound,"318.15 K, x2 = 0.0494",1538.4 m/s
same,speed of sound,"318.15 K, x2 = 0.1025",1530.3 m/s
same,speed of sound,"318.15 K, x2 = 0.1503",1522.9 m/s
same,speed of sound,"318.15 K, x2 = 0.2215",1511.8 m/s
same,speed of sound,"318.15 K, x2 = 0.3376",1493.2 m/s
same,speed of sound,"318.15 K, x2 = 0.4502",1474.8 m/s
same,speed of sound,"318.15 K, x2 = 0.5654",1455.4 m/s
same,speed of sound,"318.15 K, x2 = 0.6527",1440.5 m/s
same,speed of sound,"318.15 K, x2 = 0.7421",1424.8 m/s
same,speed of sound,"318.15 K, x2 = 0.8622",1407.5 m/s
same,speed of sound,"318.15 K, x2 = 0.9019",1403.3 m/s
same,speed of sound,"318.15 K, x2 = 0.9495",1399.6 m/s
same,speed of sound,"323.15 K, x2 = 0.0494",1523.2 m/s
same,speed of sound,"323.15 K, x2 = 0.1503",1508.6 m/s
same,speed of sound,"323.15 K, x2 = 0.2215",1498 m/s
same,speed of sound,"323.15 K, x2 = 0.3376",1480.2 m/s
same,speed of sound,"323.15 K, x2 = 0.4502",1462.4 m/s
same,speed of sound,"323.15 K, x2 = 0.5654",1443.5 m/s
same,speed of sound,"323.15 K, x2 = 0.6527",1428.8 m/s
same,speed of sound,"323.15 K, x2 = 0.7421",1413.4 m/s
same,speed of sound,"323.15 K, x2 = 0.8622",1396.1 m/s
same,speed of sound,"323.15 K, x2 = 0.9019",1391.9 m/s
CCCC[n+]1ccn(C)c1.F[P-](F)(F)(F)(F)F + O=C1CCCN1,speed of sound,"303.15 K, x1 = 1",1431.7 m/s
same,speed of sound,"308.15 K, x1 = 1",1419.8 m/s
same,speed of sound,"313.15 K, x1 = 1",1408.2 m/s
same,speed of sound,"318.15 K, x1 = 1",1396.8 m/s
same,speed of sound,"323.15 K, x1 = 1",1385.6 m/s
